From patent US11453689B2, “3-pyrrolidine-indole derivatives as serotonergic psychedelic agents for the treatment of CNS disorders” (Mindset Pharma Inc., priority 2020, dated 2022)
Read-outs that look alike come from different tables or passages of the source.

Key:
[1] = biological target: human 5-HT2A (h5-HT2A) receptor (Homo sapiens (Human), UniProt P28223); test: FLIPR calcium assay, human 5-HT2A receptor, agonist mode; format: cell-based
Procedure: I. Assessment of the Activated Effect of Exemplary Compounds of Formula I Targeting on Human 5-HT2A (h5-HT2A) Receptor Under Agonist Mode:
1. Culture the cells in cell culture medium (DMEM containing 10% FBS, 1× penicillin-streptomycin 300 μg/ml G418 and 100 μg/ml hygromycin B) at 37° C., 5% (v/v) CO2.
2. One day before the assays, detach the cell using TrypLE™ Express and count cells using cell counter.
3. Seed 20000 cells/well in 30 μl/well culture medium to a 384-well cell plate and incubate the cells overnight at 37° C., 5% (v/v) CO2.
4. On the assay day, prepare 2×dye solution following the manual of the FLIPR® Calcium 6 Assay Kit: i. Dilute the dye with assay buffer(20 mM HEPES in 1× HBSS, PH7.4); ii. Add probenecid to the final concentration of 5 mM; iii. Vortex vigorously for 1-2 minutes.
5. Medium from cell plate by flicking the cell plate on towel papers.
6. Add 10 μl of assay buffer and 10 μl of 2×dye solution to each well of the cell plate.
7. Put the cell plate on plate shaker, agitate the plate at 600 rpm for 2 minutes. Incubate the plate at 37° C. for 2 hours followed by additional 15-minute incubation at 25° C.
8. Prepare 3×compound in assay buffer: a. Dilute reference compounds to required concentration with DMSO. Add the compounds to a 384-well compound plate; b. Perform serial dilutions; c. Add 10 mM test compounds to the compound plate, perform 3-fold serial dilutions. d. […] Add 20 μl/well assay buffer to the compound plate; f. Mix the plate on plate shaker for 2 mins;
i. The normalized fluorescence reading (RFU) is calculated as shown follow, while Fmax and Fmin stand for maximum and minimum of calcium signal during defined time window: RFU=Fmax−Fmin
ii. Calculate the percentage activation by using following equation: […]
iii. Calculate EC50 by fitting % activation against log of compound concentrations with Hill equation using XLfit.

[2] = Rat liver microsomes stability with NADPH; conditions: for half-life at 2 μM / microsomal CLint at 2 μM: male, rat, microsomes; for Remaining Percentage (%) after 60 min, Rat: rat liver microsomes, with NADPH, 2 μM
Procedure: (§1) The objective of this study was to estimate in vitro metabolic stability of exemplary compounds in pooled human, male rat and male mouse liver microsomes. The concentrations of exemplary compounds in reaction systems were evaluated by LC-MS/MS for estimating the stability in pooled human, male rat and male mouse liver microsomes. The in vitro intrinsic clearances of test compounds were determined as well.
(§2) A master solution in the “Incubation Plate” containing phosphate buffer, ultra-pure H2O, MgCl2 solution and liver microsomes was made according to Table 3. The mixture was pre-warmed at 37° C. water bath for 5 minutes.
(§3) 40 μL of 10 mM NADPH solution was added to each well. The final concentration of NADPH was 1 mM. The negative control samples were prepared by replacing NADPH with 40 μL of ultra-pure H2O. Samples were prepared in duplicate. Negative controls were prepared in singlet.
(§4) The reaction was started with the addition of 4 μL of 200 μM exemplary test compounds or control compounds to each master solution to get the final concentration of 2 μM. This study was performed in duplicate.
(§5) Aliquots of 50 μL were taken from the reaction solution at 0, 15, 30, 45 and 60 minutes. The reaction solutions were stopped by the addition of 4 volumes of cold methanol with IS (100 nM alprazolam, 200 nM imipramine, 200 nM labetalol and 2 μM ketoprofen). Samples were centrifuged at 3,220 g for 40 minutes. Aliquot of 90 μL of the supernatant was mixed with 90 μL of ultra-pure H2O and then was used for LC-MS/MS analysis.
(§6) LC/MS analysis was performed for all samples from this study using a Shimadzu liquid chromatograph separation system equipped with degasser DGU-20A5R; solvent delivery unit LC-30AD; system controller SIL-30AC; column oven CTO-30A; CTC Analytics HTC PAL System. Mass spectrometric analysis was performed using an Triple Quad™ 5500 instrument.
(§7) All calculations were carried out using Microsoft Excel. Peak areas were determined from extracted ion chromatograms. The slope value, k, was determined by linear regression of the natural logarithm of the remaining percentage of the parent drug vs. incubation time curve.
(§8) Conversion of the in vitro t1/2 (min) into the in vitro intrinsic clearance (in vitro CLint, in μL/min/mg proteins) was done using the following equation (mean of duplicate determinations): […]

[3] = Mouse liver microsomes stability with NADPH; conditions: for half-life at 2 μM / microsomal CLint at 2 μM: male, mouse, microsomes; for Remaining Percentage (%) after 60 min, Mouse: mouse liver microsomes, with NADPH, 2 μM
Procedure: as §1, §2, §3, §4, §5, §6, §7, §8

human 5-HT2A receptor = human 5-HT2A receptor (Homo sapiens (Human), UniProt P28223); test: Radioligand ([3H]-ketanserin) binding assay on human 5-HT2A receptor
Procedure: i. Prepare the assay buffer following the table below;
ii. Preparation of 8 doses of reference and exemplary test compounds starting from 10 mM stock solution as requested by 5-fold serial dilutions with 100%;
iii. […] a. Add 50 μl/well of 0.5% (v/v) PEI to UniFilter-96 GF/B plates. Seal the plates and incubate at 4° C. for 3 hrs; b. After incubation, wash the plates 3 times with ice-cold wash buffer (50 mM Tris, pH7.4);
iv. Preparation of assay plates: a. Dilute cell membrane with assay buffer and add 330 μl/well to 96 round deep well plates to reach a concentration of 20 μg/well; b. Prepare 8 concentrations of reference or exemplary test compounds and add 110 μl/well to 96 round deep well plates; c. Dilute [3H]-ketanserin with assay buffer to 5 nM (5× final concentration) and add 110 μl/well to 96 round deep well plates.
v. Centrifuge the plate at 1000 rpm for 30 secs and then agitate at 600 rpm, R.T. for 5 min.
vi. Seal the plates and incubate the plate at 27° C. for 90 min.
vii. Stop the incubation by vacuum filtration onto GF/B filter plates followed by 4 times washing with ice-cold wash buffer (50 mM Tris, pH7.4).
ix. Seal the filter plates and add 40 μl/well of scintillation cocktail.
x. Read the plate by using a Microbeta2 microplate counter.
For reference and exemplary test compounds, the results are expressed as % Inhibition, using the normalization equation: N=100−100×(U−C2)/(C1−C2), where U is the unknown value, C1 is the average of high controls, and C2 is the average of low controls. The IC50 is determined by fitting percentage of inhibition as a function of compound concentrations with Hill equation using XLfit.

[4] = Human liver microsomes stability with NADPH; conditions: for Remaining Percentage (%) after 60 min, Human: human liver microsomes, with NADPH, 2 μM; for half-life at 2 μM / microsomal CLint at 2 μM: human, microsomes
Procedure: as §1, §2, §3, §4, §5, §6, §7, §8

## Oc1cccc2[nH]cc(C[C@H]3CCCN3)c12 [Compound I-3, (R)-3-(pyrrolidin-2-ylmethyl)-1H-indol-4-ol]
[1]
  EC50: < 1000 nM

## [2H]C([2H])(c1c[nH]c2cccc(F)c12)[C@H]1CCCN1C([2H])([2H])[2H] [Compound I-37, (R)-4-fluoro-3-((1-(methyl-d3)pyrrolidin-2-yl)methyl-d2)-1H-indole]
[2]
  half-life at 2 μM: 29.8 min
  microsomal CLint at 2 μM: 46.5 µL/min/mg
  Remaining Percentage (%) after 60 min, Rat: 24.82%
[3]
  half-life at 2 μM: 53.7 min
  microsomal CLint at 2 μM: 25.8 µL/min/mg
  Remaining Percentage (%) after 60 min, Mouse: 46.10%
[1]
  EC50: < 1000 nM
Human 5-HT2A receptor
  IC50: 500 to 5000 nM
[4]
  Remaining Percentage (%) after 60 min, Human: 31.93%
  half-life at 2 μM: 36.4 min
  microsomal CLint at 2 μM: 38.1 µL/min/mg

## [2H]C([2H])(c1c[nH]c2cccc(Cl)c12)[C@H]1CCCN1C([2H])([2H])[2H] [Compound I-38, (R)-4-chloro-3-((1-(methyl-d3)pyrrolidin-2-yl)methyl-d2)-1H-indole]
[1]
  EC50: > 10000 nM
Human 5-HT2A receptor
  IC50: < 500 nM

## [2H]C([2H])([2H])N1CCC[C@@H]1Cc1c[nH]c2cccc(F)c12 [Compound I-40, (R)-4-fluoro-3-((1-(methyl-d3)pyrrolidin-2-yl)methyl)-1H-indole]
[2]
  half-life at 2 μM: 54.3 min
  microsomal CLint at 2 μM: 25.5 µL/min/mg
  Remaining Percentage (%) after 60 min, Rat: 46.51%
[3]
  half-life at 2 μM: 63 min
  microsomal CLint at 2 μM: 22 µL/min/mg
  Remaining Percentage (%) after 60 min, Mouse: 51.70%
[1]
  EC50: < 1000 nM
Human 5-HT2A receptor
  IC50: < 500 nM
[4]
  Remaining Percentage (%) after 60 min, Human: 35.69%
  half-life at 2 μM: 40.4 min
  microsomal CLint at 2 μM: 34.5 µL/min/mg

## [2H]C([2H])(c1c[nH]c2cccc(F)c12)[C@H]1CCCN1 [Compound I-41, (R)-4-fluoro-3-(pyrrolidin-2-ylmethyl-d2)-1H-indole]
[1]
  EC50: 1000 to 10000 nM
Human 5-HT2A receptor
  IC50: 500 to 5000 nM

## [2H]C([2H])(c1c[nH]c2cccc(F)c12)[C@@H]1CCCN1C([2H])([2H])[2H] [Compound I-42, (S)-4-fluoro-3-((1-(methyl-d3)pyrrolidin-2-yl)methyl-d2)-1H-indole]
[1]
  EC50: > 10000 nM
Human 5-HT2A receptor
  IC50: > 5000 nM

## [2H]C([2H])(c1c[nH]c2cccc(OCc3ccccc3)c12)[C@H]1CCCN1C([2H])([2H])[2H] [Compound I-43, (R)-4-(benzyloxy)-3-((1-(methyl-d3)pyrrolidin-2-yl)methyl-d2)-1H-indole]
[1]
  EC50: > 10000 nM

## [2H]C([2H])([2H])N1CCC[C@@H]1Cc1c[nH]c2cccc(OCc3ccccc3)c12 [Compound I-45, (R)-4-(benzyloxy)-3-((1-(methyl-d3)pyrrolidin-2-yl)methyl)-1H-indole]
[1]
  EC50: > 10000 nM

## CN1CCC[C@@H]1Cc1c[nH]c2cccc(OCc3ccccc3)c12 [Compound I-46, (R)-4-(benzyloxy)-3-((1-methylpyrrolidin-2-yl)methyl)-1H-indole]
[1]
  EC50: > 10000 nM

## CN1CCC[C@@H]1Cc1c[nH]c2cccc(O)c12 [Compound I-47, (R)-3-((1-methylpyrrolidin-2-yl)methyl)-1H-indol-4-ol]
[1]
  EC50: < 1000 nM

## [2H]C([2H])([2H])N1CCC[C@@H]1Cc1c[nH]c2cccc(OC(=O)CCCCCCC/C=C\C/C=C\CCCCC)c12 [Compound I-48, 3-(((R)-1-(methyl-d3)pyrrolidin-2-yl)methyl)-1H-indol-4-yl (9Z,12Z)-octadeca-9,12-dienoate]
[2]
  half-life at 2 μM: 38.9 min
  microsomal CLint at 2 μM: 35.6 µL/min/mg
  Remaining Percentage (%) after 60 min, Rat: 41.86%
[3]
  half-life at 2 μM: 17.3 min
  microsomal CLint at 2 μM: 80 µL/min/mg
  Remaining Percentage (%) after 60 min, Mouse: 9.06%
[1]; read-out: h5-HT2A EC50, FLIPR, agonist mode
  EC50: 1000 to 10000 nM
Human 5-HT2A receptor; read-out: h5-HT2A IC50, [3H]-ketanserin competition binding
  IC50: < 500 nM
[4]
  Remaining Percentage (%) after 60 min, Human: 34.38%
  half-life at 2 μM: 73.4 min
  microsomal CLint at 2 μM: 18.9 µL/min/mg

## [2H]C([2H])(c1c[nH]c2cccc(OC(=O)CCCCCCC/C=C\C/C=C\CCCCC)c12)[C@H]1CCCN1C([2H])([2H])[2H] [Compound I-49, 3-(((R)-1-(methyl-d3)pyrrolidin-2-yl)methyl-d2)-1H-indol-4-yl (9Z,12Z)-octadeca-9,12-dienoate]
[2]
  half-life at 2 μM: 48.4 min
  microsomal CLint at 2 μM: 28.6 µL/min/mg
  Remaining Percentage (%) after 60 min, Rat: 42.38%
[3]
  half-life at 2 μM: 20.8 min
  microsomal CLint at 2 μM: 66.5 µL/min/mg
  Remaining Percentage (%) after 60 min, Mouse: 13.60%
[1]; FLIPR, agonist mode, read-out: h5-HT2A EC50
  EC50: 1000 to 10000 nM
Human 5-HT2A receptor; [3H]-ketanserin competition binding, read-out: h5-HT2A IC50
  IC50: < 500 nM
[4]
  Remaining Percentage (%) after 60 min, Human: 86.81%
  half-life at 2 μM: 294 min
  microsomal CLint at 2 μM: 4.72 µL/min/mg

## [2H]C([2H])(c1c[nH]c2cccc(O)c12)[C@@H]1CCCN1 [Compound I-51, (S)-3-(pyrrolidin-2-ylmethyl-d2)-1H-indol-4-ol]
[1]
  EC50: < 1000 nM

## [2H]C([2H])([2H])N1CCC[C@H]1Cc1c[nH]c2cccc(OCc3ccccc3)c12 [Compound I-52, (S)-4-(benzyloxy)-3-((1-(methyl-d3)pyrrolidin-2-yl)methyl)-1H-indole]
[1]
  EC50: > 10000 nM

## [2H]C([2H])([2H])N1CCC[C@H]1Cc1c[nH]c2cccc(O)c12 [Compound I-53, (S)-3-((1-(methyl-d3)pyrrolidin-2-yl)methyl)-1H-indol-4-ol]
[1]
  EC50: 1000 to 10000 nM
Human 5-HT2A receptor
  IC50: > 5000 nM

## [2H]C([2H])(c1c[nH]c2cccc(OP(=O)(O)O)c12)[C@H]1CCCN1C([2H])([2H])[2H] [Compound I-54, (R)-3-((1-(methyl-d3)pyrrolidin-2-yl)methyl-d2)-1H-indol-4-yl dihydrogen phosphate]
[1]
  EC50: 1000 to 10000 nM

## CN(C)CCc1c[nH]c2cccc(O)c12 [Psilocin, 4-hydroxy-N,N-dimethyltryptamine, reference compound]
[2]
  Remaining Percentage (%) after 60 min, Rat: 62.68%
[3]
  Remaining Percentage (%) after 60 min, Mouse: 96.89%
[4]
  Remaining Percentage (%) after 60 min, Human: 70.16%
